Test results: paper PMC7044277 (Nature Communications, 2020)
Several values for one entry are separate records, joined by “and”; a condition that tells them apart may be missing. Equal entries are not always repeated.

What was measured:
[1] = molecular target: T1, DRD4 (D4.4 variant) wild-type (Homo sapiens, UniProt P21917); test: Radioligand competition binding, [3H]-N-methylspiperone
T1 sequence (P21917 1-419): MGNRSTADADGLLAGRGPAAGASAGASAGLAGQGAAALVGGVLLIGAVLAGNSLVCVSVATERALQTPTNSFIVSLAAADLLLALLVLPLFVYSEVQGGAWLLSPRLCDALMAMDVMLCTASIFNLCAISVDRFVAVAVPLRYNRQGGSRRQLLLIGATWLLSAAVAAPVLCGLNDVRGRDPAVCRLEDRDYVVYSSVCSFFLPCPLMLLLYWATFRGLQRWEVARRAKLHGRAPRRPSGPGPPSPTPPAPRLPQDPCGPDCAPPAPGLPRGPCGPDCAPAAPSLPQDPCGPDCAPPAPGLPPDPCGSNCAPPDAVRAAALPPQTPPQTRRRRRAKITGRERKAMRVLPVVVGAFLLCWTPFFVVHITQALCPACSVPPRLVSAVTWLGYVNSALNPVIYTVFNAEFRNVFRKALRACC

[2] = molecular target: DRD2 F1103.28A (Homo sapiens, UniProt P14416, F110A); type: binding; design: expressed in transfected cells; host or cells: HEK293T (ATCC CRL-11268); conditions: DRD2 F1103.28A
DRD2 F1103.28A, sequence (P14416 whole entry F110A): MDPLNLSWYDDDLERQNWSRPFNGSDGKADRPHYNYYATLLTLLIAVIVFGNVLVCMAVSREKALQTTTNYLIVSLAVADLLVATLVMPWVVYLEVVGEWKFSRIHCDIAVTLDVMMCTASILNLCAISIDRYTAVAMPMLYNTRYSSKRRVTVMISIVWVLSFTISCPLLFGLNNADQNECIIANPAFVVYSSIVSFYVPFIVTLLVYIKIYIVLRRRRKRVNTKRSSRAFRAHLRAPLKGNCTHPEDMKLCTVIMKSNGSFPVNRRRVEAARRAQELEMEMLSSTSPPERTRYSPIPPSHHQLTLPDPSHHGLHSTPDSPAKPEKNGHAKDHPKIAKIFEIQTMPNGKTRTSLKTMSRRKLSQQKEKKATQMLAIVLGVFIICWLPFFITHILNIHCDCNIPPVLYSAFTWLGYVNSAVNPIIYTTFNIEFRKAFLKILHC

[3] = molecular target: T2, DRD4 (D4.4 variant) (Homo sapiens, UniProt P21917); test: Gαi/o-mediated cAMP inhibition (GloSensor); type: cell-based; conditions: DRD4; agonist, cAMP inhibition; read-out: EC50 ± SEM
T2 sequence (P21917 1-419): T1 sequence (P21917 1-419)

[4] = molecular target: DRD2 (D2 long receptor) wild-type (Homo sapiens, UniProt P14416); test: Radioligand competition binding, [3H]-N-methylspiperone, HEK293T membranes
DRD2 (D2 long receptor) wild-type, sequence (P14416 whole entry): as the sequence (P14416 whole entry F110A) above, with A110F counted along it

[5] = molecular target: DRD3 (Homo sapiens, UniProt P35462); test: β-arrestin2 recruitment (Tango); type: cell-based; conditions: DRD3, Tango
DRD3, sequence (P35462 whole entry): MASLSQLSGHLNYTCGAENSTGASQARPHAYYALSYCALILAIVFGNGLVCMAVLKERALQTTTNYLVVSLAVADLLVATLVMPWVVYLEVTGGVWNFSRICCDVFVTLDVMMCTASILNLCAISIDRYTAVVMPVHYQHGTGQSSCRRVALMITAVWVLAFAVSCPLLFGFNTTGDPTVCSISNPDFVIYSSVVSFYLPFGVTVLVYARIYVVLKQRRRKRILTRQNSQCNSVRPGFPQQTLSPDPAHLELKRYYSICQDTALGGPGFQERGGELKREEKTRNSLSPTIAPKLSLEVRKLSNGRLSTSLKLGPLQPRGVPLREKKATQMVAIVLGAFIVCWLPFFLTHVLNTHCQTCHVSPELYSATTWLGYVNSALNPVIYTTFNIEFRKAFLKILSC

[6] = molecular target: T3, DRD2 (D2 long receptor) (Homo sapiens, UniProt P14416); test: β-arrestin2 recruitment (Tango), HTLA cells; type: cell-based; conditions: for Response, Fig_S11c dose-response: individual replicates
T3 sequence (P14416 whole entry): as the sequence (P14416 whole entry F110A) above, with A110F counted along it

[7] = molecular target: T3, DRD2 (D2 long receptor); test: Gαi/o-mediated cAMP inhibition (GloSensor split-luciferase cAMP reporter), HEK293T; type: cell-based; conditions: for Response, Fig_S11b dose-response: individual replicates;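 for all read-outs here: compounds applied 15 min at room temperature, then luciferin plus 400 nM isoproterenol to raise cAMP through endogenous β2-adrenergic receptors, luminescence read 15 min later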
[8] = molecular target: T2, DRD4 (D4.4 variant); test: β-arrestin2 recruitment (Tango); type: cell-based; conditions: DRD4; Tango; read-out: EC50 ± SEM
[9] = molecular target: DRD3 wild-type (Homo sapiens, UniProt P35462); test: Radioligand competition binding, [3H]-N-methylspiperone
DRD3 wild-type, sequence (P35462 whole entry): as the sequence (P35462 whole entry) above

- Ki ([1]; DRD4, [3H]-methylspiperone (0.8-1.0 nM), read-out: Ki): 6600 nM
- pKi ± SEM ([1]; DRD4 wild-type): 5.18±0.16
- pKi ± SEM [2]: 6.17±0.24
- Ki ([2]; read-out: Ki): 680 nM
- EC50 [3]: > 10000 nM
- Ki ([4]; DRD2, [3H]-methylspiperone (0.8-1.0 nM), read-out: Ki): 2510 nM
- pKi ± SEM ([4]; DRD2 wild-type): 5.60±0.27
- Emax relative to quinpirole response [5]: 53.92%
- EC50 ([5]; read-out: EC50 ± SEM): 2070 ± 524 nM
- Emax relative to quinpirole response ([6]; DRD2, Tango): 96.83%
- EC50 ([6]; DRD2, β-arrestin2 recruitment (Tango), read-out: EC50 ± SEM): 48 ± 17.4 nM
- Response, Fig_S11c dose-response ([6]; Log[Drug] -6.52): 78.0067 and 72.6033 and 81.7269
- EC50 ([7]; DRD2, agonist, Gαi/o-mediated cAMP inhibition, read-out: EC50 ± SEM): 0.51 ± 0.22 nM
- Emax relative to quinpirole response ([7]; DRD2, cAMP inhibition): 92.80%
- Response, Fig_S11b dose-response ([7]; Log[Drug] -12): 10.388 and -0.6478 and -16.2541
- EC50 [8]: > 10000 nM
- Ki ([9]; DRD3, [3H]-methylspiperone (0.8-1.0 nM), read-out: Ki): 390 nM
- pKi ± SEM ([9]; DRD3 wild-type): 6.41±0.20
Structure (SMILES): CCCOc1cccc2cc(C(C)NCC3(O)CCCCC3)oc12.Cl (centres unmarked) [O5LE6]
- response, Fig_S11c dose-response source data ([6]; Fig_S11c, Log[Drug] -5, replicate values): 92.0049 and 94.8711 and 101.869 and 86.3956 and 96.7296 and 94.1831 and 124.768 and 128.356
- Response, Fig_S11c dose-response ([6]; Log[Drug] -7): 59.3634 and 78.1496 and 92.3943 and 62.4498 and 64.4647 and 75.7752 and 66.3683 and 83.054 and 11.3874
- Response, Fig_S11c dose-response ([6]; Log[Drug] -7.52): 39.0633 and 46.4823 and 48.2261 and 47.7888 and 46.5069 and 50.1562 and 52.6803 and 36.834 and 2.983
- Response, Fig_S11c dose-response ([6]; Log[Drug] -8): 13.2042 and 18.1697 and 22.7864 and 24.8922 and 32.8443 and 29.0019 and 29.5472 and 40.4681 and 3.216
- Response, Fig_S11c dose-response ([6]; Log[Drug] -8.52): 6.043 and 5.645 and 6.29 and 8.275 and 9.219 and 10.0453 and 7.5026 and 13.6733
- Response, Fig_S11c dose-response ([6]; Log[Drug] -9): 3.483 and 3.9317 and 4.775 and 3.72 and 3.708 and 4.581 and 2.217 and 12.7509 and 0.7411
- Response, Fig_S11c dose-response ([6]; Log[Drug] -9.52): 2.993 and 3.331 and 4.098 and 2.754 and 3.737 and 4.1942 and 7.991 and 10.1775 and 1.675
- Response, Fig_S11c dose-response ([6]; Log[Drug] -10): 3.128 and 3.469 and 3.576 and 3.051 and 3 and 3.543 and 4.136 and 3.1859 and 0.7745
- Response, Fig_S11c dose-response ([6]; Log[Drug] -10.52): 3.13 and 3.099 and 3.417 and 2.557 and 2.786 and 3.353 and 2.31 and 1.747 and 0.1927
- Response, Fig_S11c dose-response ([6]; Log[Drug] -11): 2.735 and 2.569 and 3.311 and 2.422 and 2.816 and 3.208 and 1.747 and 3.739 and 0.4891
- Response, Fig_S11c dose-response ([6]; Log[Drug] -11.52): 2.576 and 2.946 and 3.152 and 2.7257 and 2.6254 and 2.896 and 3.227 and 4.708 and 2.264
- Response, Fig_S11c dose-response ([6]; Log[Drug] -12): 2.314 (2×) and 2.658 and 2.679 and 2.551 and 2.481 and 2.532 and 1.9407
- Response, Fig_S11b dose-response ([7]; Log[Drug] -5): 93.7387 and 96.4518 and 83.3289 and 97.2506 and 100.948 and 91.5558 and 103.412 and 92.2091 and 101.183
- Response, Fig_S11b dose-response ([7]; Log[Drug] -5.52): 82.1384 and 82.3875 and 75.0785 and 87.4334 and 93.0858 and 74.7688 and 89.9797 and 94.4943 and 85.5765
- Response, Fig_S11b dose-response ([7]; Log[Drug] -6): 92.7696 and 95.5936 and 84.8792 and 92.7883 and 90.7908 and 90.8333 and 98.9533 and 107.927 and 83.4028
- Response, Fig_S11b dose-response ([7]; Log[Drug] -6.52): 97.1163 and 91.7176 and 84.6854 and 100.523 and 99.588 and 84.586 and 94.4943 (2×) and 87.9175
- Response, Fig_S11b dose-response ([7]; Log[Drug] -7): 88.7275 and 92.9358 and 71.1749 and 92.7033 and 88.1559 and 76.2138 and 94.4943 and 90.0354 and 94.6058
- Response, Fig_S11b dose-response ([7]; Log[Drug] -7.52): 77.9025 and 80.4772 and 73.7773 and 81.6111 and 84.246 and 79.2737 and 92.3206 (2×) and 90.0912
- Response, Fig_S11b dose-response ([7]; Log[Drug] -8): 77.3211 and 65.3055 and 54.0098 and 88.3259 and 67.3316 and 76.7238 and 92.3764 and 94.6058 and 90.1469
- Response, Fig_S11b dose-response ([7]; Log[Drug] -8.52): 58.6056 and 55.6709 and 54.785 and 76.7663 and 68.819 and 71.6664 and 72.5342 and 65.79 and 68.0195
- Response, Fig_S11b dose-response ([7]; Log[Drug] -9): 60.5713 and 46.8115 and 46.2578 and 72.3889 and 53.7745 and 57.9819 and 43.7184 and 46.0036 and 36.9186
- Response, Fig_S11b dose-response ([7]; Log[Drug] -11): 6.418 and 5.781 and 25.106 and 20.5831 and 9.873 and -2.9186 and 1.972 and -15.9196 and 1.6931
- Response, Fig_S11b dose-response ([7]; Log[Drug] -11.52): -0.171 and -1.0016 and 12.1684 and 15.5258 and 10.8339 and -7.0018 and -2.6544
